Our source for the ET-50, gingival irritation and eye irritation classification values is US20240293304A1, “SULFONATE-FUNCTIONALIZED ALKYL POLYGLUCOSIDES AS SULFATE-FREE SURFACTANTS FOR TOOTHPASTE AND MOUTHWASH” (Colonial Chemical, Inc., priority 2021, published 2024).

A value given as a limit tells only on which side of the number the result lay.

Data set [1] deals with gingival tissues (MatTek EpiGingival). Put plainly: MatTek EpiGingival in vitro gingival irritation potential. The class given is cell-based. The conditions noted are these: 2% SLS. The text has this: Suga®Nate 160NC has been tested for its oral and gingival irritation potential in vitro (MatTek EpiOral™ & EpiGingival™). […] Taken together, the results reveal that Suga®Nate 160NC, even as a neat product, is less irritating to oral and gingival tissues than 2% SLS.

The test system of data set [2] is In vitro epidermal keratinocytes. The format is cell-based.

Consider `CCCCCCCCCCCCOS(=O)(=O)[O-].[Na+]` [SLS], for which, in data set [1], the ET-50 worked out at 418.2 min and the gingival irritation entry is given as “resulted in gingival irritation”.

Turning to “sodium hydroxypropylsulfonate laurylglucoside crosspolymer [Poly Suga®Nate 160P NC]”, in data set [2], the ET-50 was no less than 256 min and the eye irritation classification result is “non-irritating”.

Regarding “sorbitan oleate decylglucoside crosspolymer [Poly Suga®Mulse D9]”, in data set [2], the eye irritation classification entry is recorded as “non-irritating”.
